Starred links: 1 amine or outer side, 2 acyl side, 3 side chain; linkers in the order of their positions; H or OH if unused. Positions of bridges follow the written chain, without caps; N, C: chain ends. Non-standard residues stand in square brackets, D forms with d. Residues, ends and D or L forms follow the SMILES beside them. Chains are numbered I, II in the order given. Actinocin(9to1) = Cc1c2oc3c(C)ccc(C(=O)[*:1])c3nc-2c(C(=O)[*:2])c(N)c1=O; NMeV = CN[C@H](C(=O)O)C(C)C; Sar = CNCC(=O)O
Test system: Human Umbilical Vein Endothelial (HUVE) cells
Experiment: In vitro tube formation assay on BME
Assay type: cell-based
Details: most marked between 4 and 16 hours after plating
Procedure: FIG. 7: Interference with Survivin-ΔEx3 inhibits angiogenesis in vitro. Human Umbilical Vein Endothelial (HUVE) cells were transfected with shRNAs of the instant invention or incubated with antibodies against Survivin-ΔEx3 and the results compared to HUVE cells treated with known inducers/inhibitors of in vitro angiogenesis. Treated/transfected cells were plated on growth factor reduced basement membrane extract (BME) to support in vitro tube formation. […] Quantitative data shown in (E) are mean±s.e. of 5 replicates per sample.
Survivin ΔEx3 activity was disrupted in an in vitro tube formation assay by either downregulating Survivin ΔEx3 mRNA with an shRNA or inhibiting Survivin ΔEx3 protein with an anti-Survivin ΔEx3 antibody. To downregulate transcription, an shRNA targeting the exon2-exon-4 boundary, specific for Survivin ΔEx3 was used. A scrambled shRNA and a cocktail of 3 shRNAs targeting all Survivin isoforms were used as controls (FIG. 7). HUVECs were transfected with shRNA plasmids in combination with a plasmid encoding eGFP. The cells were sterile sorted by FACS to isolate the population of cells that was successfully transfected, based on eGFP fluorescence. […] Tube formation was quantified by counting the number of branches and tube length from 5 representative fields per replicate, in a double-blinded fashion.

Cc1c2oc3c(C)ccc(C(=O)N[C@@H]4C(=O)N[C@H](C(C)C)C(=O)N5CCC[C@H]5C(=O)N(C)CC(=O)N(C)[C@@H](C(C)C)C(=O)O[C@@H]4C)c3nc-2c(C(=O)N[C@@H]2C(=O)N[C@H](C(C)C)C(=O)N3CCC[C@H]3C(=O)N(C)CC(=O)N(C)[C@@H](C(C)C)C(=O)O[C@@H]2C)c(N)c1=O [actinomycin-D] (I: T[dV]P[Sar][NMeV] / II: T[dV]P[Sar][NMeV]; ester I:1-I:C, II:1-II:C; linker I:N-II:N via Actinocin(9to1))
tube formation on BME: inhibition of tube formation

Source: patent US20060276423A1, “Survivin-directed RNA interference-compositions and methods” (priority 2005, published 2006)
